Assay results from patent US11584744B2 (UNIVERSITY OF WASHINGTON, priority 2017, dated 2023).
Where “and” joins values, the source holds several entries; their conditions need not be identical. Identical values can stand only once. Like-named read-outs stand apart in the source and are kept apart here.

How the values were obtained:
MetRS (T. brucei) = molecular target: T1, MetRS (T. brucei) (Trypanosoma brucei brucei, UniProt Q38C91); assay: MetRS (T. brucei) enzyme inhibition; format: biochemical
T1 sequence (Q38C91 1-773): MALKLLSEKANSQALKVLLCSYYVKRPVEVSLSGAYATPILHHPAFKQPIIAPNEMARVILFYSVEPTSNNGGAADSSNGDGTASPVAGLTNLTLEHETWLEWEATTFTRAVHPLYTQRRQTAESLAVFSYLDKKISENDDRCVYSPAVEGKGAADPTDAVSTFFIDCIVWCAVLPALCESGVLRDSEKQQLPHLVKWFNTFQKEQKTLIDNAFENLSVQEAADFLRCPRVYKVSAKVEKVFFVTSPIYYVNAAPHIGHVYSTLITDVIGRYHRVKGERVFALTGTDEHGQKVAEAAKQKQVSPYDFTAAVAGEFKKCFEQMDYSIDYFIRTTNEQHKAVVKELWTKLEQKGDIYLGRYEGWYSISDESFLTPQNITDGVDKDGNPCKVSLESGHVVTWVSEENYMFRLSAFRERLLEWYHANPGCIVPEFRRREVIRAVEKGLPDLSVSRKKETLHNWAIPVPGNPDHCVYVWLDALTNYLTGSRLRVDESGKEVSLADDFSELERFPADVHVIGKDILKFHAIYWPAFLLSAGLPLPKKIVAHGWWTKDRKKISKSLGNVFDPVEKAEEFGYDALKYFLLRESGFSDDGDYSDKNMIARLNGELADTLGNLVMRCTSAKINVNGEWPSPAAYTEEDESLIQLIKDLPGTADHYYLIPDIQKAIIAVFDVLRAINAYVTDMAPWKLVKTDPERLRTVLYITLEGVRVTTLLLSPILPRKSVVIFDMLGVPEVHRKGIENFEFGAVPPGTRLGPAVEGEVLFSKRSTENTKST

MetRS (C. parvum) = MetRS (C. parvum) (Cryptosporidium parvum, UniProt Q5CVN0); assay: MetRS (C. parvum) enzyme inhibition; format: biochemical; details: read-out: (C) MetRS (C. parvum) IC50
T. brucei = T. brucei growth inhibition; format: cell-based, Trypanosoma brucei; details: Trypanosoma brucei; read-out: (D) T. brucei EC50
T. cruzi = T. cruzi growth inhibition; format: cell-based, Trypanosoma cruzi; details: read-out: (E) T. cruzi EC50

Sequence of MetRS (C. parvum) (Q5CVN0 entry or part of it): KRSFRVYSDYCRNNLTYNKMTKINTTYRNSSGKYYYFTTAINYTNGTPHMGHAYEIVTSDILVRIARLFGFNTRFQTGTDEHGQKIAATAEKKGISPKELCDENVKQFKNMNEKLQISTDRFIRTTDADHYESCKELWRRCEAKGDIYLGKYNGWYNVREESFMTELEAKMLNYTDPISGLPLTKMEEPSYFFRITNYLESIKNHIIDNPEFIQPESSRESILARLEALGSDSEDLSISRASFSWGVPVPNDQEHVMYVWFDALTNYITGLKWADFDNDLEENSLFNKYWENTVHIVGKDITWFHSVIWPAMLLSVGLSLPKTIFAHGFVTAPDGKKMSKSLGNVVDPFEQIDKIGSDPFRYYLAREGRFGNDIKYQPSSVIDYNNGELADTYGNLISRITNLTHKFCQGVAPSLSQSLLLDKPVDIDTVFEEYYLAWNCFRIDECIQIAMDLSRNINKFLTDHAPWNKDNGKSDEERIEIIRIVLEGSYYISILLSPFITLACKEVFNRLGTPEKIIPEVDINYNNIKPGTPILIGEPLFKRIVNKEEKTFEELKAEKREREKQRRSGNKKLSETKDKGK

Work on `Fc1ccc2nc(Cn3cc(Cc4ccc(Cl)cc4Cl)[nH]c3=S)[nH]c2n1` [Compound 2056, 5-(2,4-dichlorobenzyl)-3-((5-fluoro-3H-imidazo[4,5-b]pyridin-2-yl)methyl)-1H-imidazole-2(3H)-thione] yielded an IC50 (MetRS (T. brucei)) of less than 40 nM, an IC50 (MetRS (C. parvum)) of 195 nM and an EC50 (T. brucei) of 242 nM. The EC50 (T. cruzi; Trypanosoma cruzi) was 3720 nM.

In the case of `CCn1c(Cc2ccc(Cl)cc2Cl)cn(Cc2nc3ccccc3[nH]2)c1=O` [Compound 2068, 1-[(1H-1,3-benzodiazol-2-yl)methyl]-4-[(2,4-dichlorophenyl)methyl]-3-ethyl-2,3-dihydro-1H-imidazol-2-one], the IC50 (MetRS (T. brucei)) is reported as less than 40 nM, the IC50 (MetRS (C. parvum)) is reported as less than 40 nM and the EC50 (T. brucei) is reported as 40.2 nM. The EC50 (T. cruzi; Trypanosoma cruzi) was 1000 nM.

`CCn1c(Cc2ccc(Cl)cc2Cl)cn(Cc2nc3ccc(F)nc3[nH]2)c1=S` [Compound 2103, 4-[(2,4-dichlorophenyl)methyl]-3-ethyl-1-({5-fluoro-1H-imidazo[4,5-b]pyridin-2-yl}methyl)-2,3-dihydro-1H-imidazole-2-thione] gave an IC50 (MetRS (T. brucei)) of 63 nM, an IC50 (MetRS (C. parvum)) of 175 nM and an EC50 (T. brucei) of 113 nM. It also gave an EC50 (T. cruzi; Trypanosoma cruzi) of 2930 nM.

`CSc1nc(Cc2ccc(Cl)cc2Cl)cn1Cc1nc2ccc(F)nc2[nH]1` [Compound 2104, 4-[(2,4-dichlorophenyl)methyl]-1-({5-fluoro-1H-imidazo[4,5-b]pyridin-2-yl}methyl)-2-(methylsulfanyl)-1H-imidazole] was tested, and the IC50 (MetRS (T. brucei)) was less than 40 nM, the IC50 (MetRS (C. parvum)) was 40.3 nM and the EC50 (T. brucei) was 73.4 nM. For the same molecule, the EC50 (T. cruzi; Trypanosoma cruzi) was 1480 nM.

For `CSc1nc(Cc2ccc(Cl)cc2Cl)cn1Cc1nc2nc(Cl)ccc2[nH]1` [Compound 2109, 1-({5-chloro-1H-imidazo[4,5-b]pyridin-2-yl}methyl)-4-[(2,4-dichlorophenyl)methyl]-2-(methylsulfanyl)-1H-imidazole], the IC50 (MetRS (T. brucei)) was less than 40 nM, the IC50 (MetRS (C. parvum)) was less than 40 nM and the EC50 (T. brucei) was 53.5 nM. It also gave an EC50 (T. cruzi; Trypanosoma cruzi) of 329 nM.

In the case of `COc1ccc(-c2cccc3c2CN(Cc2nc4nc(Cl)ccc4[nH]2)CC3)c(Cl)c1` [Compound 2161, 2-({5-chloro-1H-imidazo[4,5-b]pyridin-2-yl}methyl)-8-(2-chloro-4-methoxyphenyl)-1,2,3,4-tetrahydroisoquinoline], the IC50 (MetRS (T. brucei)) is reported as less than 40 nM, the IC50 (MetRS (C. parvum)) is reported as 252 nM and the EC50 (T. brucei) is reported as 1050 nM.

With `COc1ccc(-c2cccc3nc(Cc4nc5nc(Cl)ccc5[nH]4)oc23)c(Cl)c1` [Compound 2162, 2-({5-chloro-1H-imidazo[4,5-b]pyridin-2-yl}methyl)-7-(2-chloro-4-methoxyphenyl)-1,3-benzoxazole] the IC50 (MetRS (T. brucei)) was less than 40 nM, the IC50 (MetRS (C. parvum)) was 90.4 nM and the EC50 (T. brucei) was 175 nM.

`CCOc1ccc(-c2cccc3nc(Cc4nc5nc(Cl)ccc5[nH]4)cn23)c(Cl)c1` [Compound 2164, 2-({5-chloro-1H-imidazo[4,5-b]pyridin-2-yl}methyl)-5-(2-chloro-4-ethoxyphenyl)imidazo[1,2-a]pyridine] was tested, and the IC50 (MetRS (T. brucei)) was 143 nM, the IC50 (MetRS (C. parvum)) was greater than 1000 nM and the EC50 (T. brucei) was 1910 nM.

In the case of `Cc1ccc(-c2cccc3nc(Cc4nc5nc(Cl)ccc5[nH]4)cn23)c(Cl)c1` [Compound 2165, 2-({5-chloro-1H-imidazo[4,5-b]pyridin-2-yl}methyl)-5-(2-chloro-4-methylphenyl)imidazo[1,2-a]pyridine], the IC50 (MetRS (T. brucei)) is reported as less than 40 nM, the IC50 (MetRS (C. parvum)) is reported as 326 nM and the EC50 (T. brucei) is reported as greater than 200 nM.

Work on `COc1ccc(-c2cccc3c2CN(Cc2nc4nc(F)ccc4[nH]2)CC3)c(Cl)c1` [Compound 2167, 8-(2-chloro-4-methoxyphenyl)-2-((5-fluoro-1H-imidazo[4,5-b]pyridin-2-yl)methyl)-1,2,3,4-tetrahydroisoquinoline] yielded an IC50 (MetRS (T. brucei)) of 203 nM, an IC50 (MetRS (C. parvum)) of 505 nM and an EC50 (T. brucei) greater than 2000 nM.

Work on `COc1ccc(-c2cnc3ccc(NCc4nc5nc(F)ccc5[nH]4)cn23)c(Cl)c1` [Compound 2173, 3-(2-chloro-4-methoxyphenyl)—N-((5-fluoro-1H-imidazo[4,5-b]pyridin-2-yl)methyl)imidazo[1,2-a]pyridin-6-amine] yielded an IC50 (MetRS (T. brucei)) of 57 nM, an IC50 (MetRS (C. parvum)) of 185 nM and an EC50 (T. brucei) greater than 2000 nM.

In the case of `COc1ccc(-c2cnc(N)c3nc(Cc4nc5nc(Cl)ccc5[nH]4)cn23)c(Cl)c1` [Compound 2175, 2-({5-chloro-1H-imidazo[4,5-b]pyridin-2-yl}methyl)-5-(2-chloro-4-methoxyphenyl)imidazo[1,2-a]pyrazin-8-amine], the IC50 (MetRS (T. brucei)) is reported as 72 nM and < 40 nM, the IC50 (MetRS (C. parvum)) is reported as 41.7 nM and the EC50 (T. cruzi; Trypanosoma cruzi) is reported as 681 nM. The EC50 (T. cruzi) was 638 nM.

With `CCn1cc(-c2ccc(OC)cc2Cl)c2c1CCN(Cc1nc3nc(Cl)ccc3[nH]1)C2` [Compound 2177, 5-chlor0-2-((3-(2-chloro-4-methoxyphenyl)-1-ethyl-6,7-dihydro-1H-pyrrolo[3,2-c]pyridin-5(4H)-yl)methyl)-1H-imidazo[4,5-b]pyridine] the IC50 (MetRS (T. brucei)) was less than 40 nM, the IC50 (MetRS (C. parvum)) was less than 40 nM and the EC50 (T. brucei) was 92.5 nM. It also gave an EC50 (T. cruzi; Trypanosoma cruzi) of 409 nM.

`COc1ccc(-n2ccc(=O)c3cc(F)c(Cc4nc5nc(Cl)ccc5[nH]4)cc32)c(Cl)c1` [Compound 2178, 7-((5-chloro-1H-imidazo[4,5-b]pyridin-2-yl)methyl)-1-(2-chloro-4-methoxyphenyl)-6-fluoroquinolin-4(1H)-one] showed an IC50 (MetRS (T. brucei)) of 116 nM, an IC50 (MetRS (C. parvum)) of 881 nM and an EC50 (T. brucei) of 5660 nM.

`COc1ccc(-c2ccc(N)c3nc(Cc4nc5cc(Cl)ccc5[nH]4)cn23)c(Cl)c1` [Compound 2179, 2-[(6-chloro-1H-1,3-benzodiazol-2-yl)methyl]-5-(2-chloro-4-methoxyphenyl)imidazo[1,2-a]pyridin-8-amine] was tested, and the IC50 (MetRS (T. brucei)) was less than 40 nM, the IC50 (MetRS (C. parvum)) was 76 nM and the EC50 (T. brucei) was 183 nM.

In the case of `CCNC(=O)Nc1ccc(-c2ccc(OC)cc2Cl)n2cc(Cc3nc4ccc(Cl)cc4[nH]3)nc12` [Compound 2182, 1-{2-[(6-chloro-1H-1,3-benzodiazol-2-yl)methyl]-5-(2-chloro-4-methoxyphenyl)imidazo[1,2-a]pyridin-8-yl}-3-ethylurea], the IC50 (MetRS (T. brucei)) is reported as less than 40 nM, the IC50 (MetRS (C. parvum)) is reported as 42.1 nM and the EC50 (T. brucei) is reported as 84 nM. For the same molecule, the EC50 (T. cruzi; Trypanosoma cruzi) was 647 nM.

Work on `COc1ccc(-c2nn(C)c3c2CN(Cc2nc4nc(Cl)ccc4[nH]2)CC3)c(Cl)c1` [Compound 2187, 5-((5-chloro-1H-imidazo[4,5-b]pyridin-2-yl)methyl)-3-(2-chloro-4-methoxyphenyl)-1-methyl-4,5,6,7-tetrahydro-1H-pyrazolo[4,3-c]pyridine] yielded an IC50 (MetRS (T. brucei)) of 117 nM, an IC50 (MetRS (C. parvum)) of 113 nM and an EC50 (T. brucei) greater than 2000 nM.

Molecule `COc1ccc(-c2c3c(nn2C)CCN(Cc2nc4nc(Cl)ccc4[nH]2)C3)c(Cl)c1` [Compound 2188, 5-((5-chloro-1H-imidazo[4,5-b]pyridin-2-yl)methyl)-3-(2-chloro-4-methoxyphenyl)-2-methyl-4,5,6,7-tetrahydr0-2H-pyrazolo[4,3-c]pyridine] has an IC50 (MetRS (T. brucei)) of less than 40 nM, an IC50 (MetRS (C. parvum)) of 443 nM and an EC50 (T. brucei) of 808 nM.

`Clc1ccc(Cn2cnc(Cc3nc4nc(Cl)ccc4[nH]3)c2)c(Cl)c1` [Compound 2190, 4-({5-chloro-1H-imidazo[4,5-b]pyridin-2-yl}methyl)-1-[(2,4-dichlorophenyl)methyl]-1H-imidazole] showed an IC50 (MetRS (T. brucei)) of less than 40 nM, an IC50 (MetRS (C. parvum)) of 91.7 nM and an EC50 (T. brucei) of 174 nM.

`CC(=O)Nc1nc(Cc2ccc(Cl)cc2Cl)cn1Cc1nc2ccc(Cl)cc2[nH]1` [Compound 2193, N-{1-[(6-chloro-1H-1,3-benzodiazol-2-yl)methyl]-4-[(2,4-dichlorophenyl)methyl]-1H-imidazol-2-yl}acetamide] gave an IC50 (MetRS (T. brucei)) of less than 40 nM, an IC50 (MetRS (C. parvum)) of 232 nM and an EC50 (T. brucei) of 257 nM.

`Clc1ccc(Cc2cn(Cc3nc4ccc(Cl)cc4[nH]3)c(Br)n2)c(Cl)c1` [Compound 2194, 2-({2-bromo-4-[(2,4-dichlorophenyl)methyl]-1H-imidazol-1-yl}methyl)-6-chloro-1H-1,3-benzodiazole] was tested, and the IC50 (MetRS (T. brucei)) was greater than 10000 nM, the IC50 (MetRS (C. parvum)) was greater than 1000 nM and the EC50 (T. brucei) was greater than 2000 nM.

Molecule `OCCNc1nc(Cc2ccc(Cl)cc2Cl)cn1Cc1nc2ccc(Cl)cc2[nH]1` [Compound 2196, 2-({1-[(6-chloro-1H-1,3-benzodiazol-2-yl)methyl]-4-[(2,4-dichlorophenyl)methyl]-1H-imidazol-2-yl}amino)ethan-1-ol] has an IC50 (MetRS (T. brucei)) of 1280 nM, an IC50 (MetRS (C. parvum)) greater than 1000 nM and an EC50 (T. brucei) greater than 2000 nM.

In the case of `O=C(O)Cn1c(C(O)c2ccc(Cl)cc2Cl)cn(Cc2nc3ccc(Cl)nc3[nH]2)c1=O` (stereo not drawn) [Compound 2218, 2-(3-((5-chloro-3H-imidazo[4,5-b]pyridin-2-yl)methyl)-5((2,4-dichlorophenyl)(hydroxy)methyl)-2-oxo-2,3-dihydro-1H-imidazol-1-yl)acetic acid], the IC50 (MetRS (T. brucei)) is reported as less than 40 nM, the IC50 (MetRS (C. parvum)) is reported as 40.1 nM and the EC50 (T. brucei) is reported as 718 nM. For the same molecule, the EC50 (T. cruzi; Trypanosoma cruzi) was greater than 5000 nM.
